Measured values published in US8232294B2, “Amino ester derivatives, sailts thereof and methods of use” (Sunshine Lake Pharma Co., Ltd., priority 2009, dated 2012).
Counter-ions that a name gives are not always drawn.

What was measured:
[1] = test system: U87MG tumors; assay: Human U87MG glioblastoma xenograft tumor model; format: in vivo, female nude mice (BALB/cA nu/nu); conditions: 21 days; for decrease of mean tumor volume (TGI): Day 21, vs vehicle
Experimental: In a pilot study, the efficacy of compounds disclosed herein was evaluated in a standard murine model of tumorigenesis. Human tumor cells were generated with human glioblastoma cells (U87MG cells, ATCC) and were grown as subcutaneous tumors in 6-7 week old female nude mice (BALB/cA nu/nu, Shanghai SLAC Laboratory Animal, Co.) (n=10 for vehicle group, n=8 for each dosing group). When tumors reached a volume of 100-200 mm^3, animals were randomly divided into vehicle control (2% HPMC+1% Tween-80 in water) and compound groups. Subsequent administration of compound by oral gavage (10-100 mpk/dose, dissolved in purified water or 2% HPMC+1% Tween-80 in water) begins anywhere from day 0 to day 15 post tumor cell challenge and generally continues with once a day for the duration of the experiment.
(§1) Progression of tumor growth is assessed by tumor volumes and recorded as a function of time. The long (L) and short (W) axes of the subcutaneous tumors were measured with calipers twice weekly, and the tumor volume (TV) calculated as (L×W^2)/2). TGI was calculated from the difference between the median tumor volumes of vehicle-treated and drug-treated mice, expressed as a percentage of the median tumor volume of the vehicle-treated control group, by the following relation:
(§2) Initial statistical analysis is done by repeated measures analysis of variance (RMANOVA). Followed by Scheffe psot hoc testing for multiple comparisons. Vehicle alone (2% HPMC+1% Tween-80, or the like) is the negative control. Compounds disclosed herein were generally active at or less than 100 mpk.

[2] = test system: MKN45 tumors; assay: Human MKN45 gastric adenocarcinoma xenograft tumor model; format: in vivo, female nude mice (BALB/cA nu/nu); conditions: for decrease of mean tumor volume (TGI): Day 18, vs vehicle
Experimental: Xenografts were also generated with human gastric tumor cells (MKN45 cells, ATCC) and were grown as subcutaneous tumors in 6-7 week old female nude mice (BALB/cA nu/nu, Shanghai SLAC Laboratory Animal, Co.) (n=10 for vehicle group, n=8 for each dosing group). When tumors reached a volume of 60-150 mm^3, animals were randomly divided into vehicle control (2% HPMC+1% Tween-80 in water) and compound groups. Subsequent administration of compound by oral gavage (10-60 mpk/dose, dissolved in purified water or 2% HPMC+1% Tween-80 in water) begins anywhere from day 0 to day 15 post tumor cell challenge and generally continues with once a day for the duration of the experiment.
as §1, §2

SMILES	decrease of mean tumor volume (TGI) ([1]; 10 mg/kg p.o. QD)	decrease of mean tumor volume (TGI) ([1]; 30 mg/kg p.o. QD)	decrease of mean tumor volume (TGI) ([1]; 100 mg/kg p.o. QD)	inhibition of growth of U87MG tumors ([1]; all doses: 10, 30 and 100 mg/kg p.o. QD)	decrease of mean tumor volume (TGI) ([2]; 10 mg/kg p.o. QD, 18 days)	decrease of mean tumor volume (TGI) ([2]; 30 mg/kg p.o. QD, 18 days)	decrease of mean tumor volume (TGI) ([2]; 60 mg/kg p.o. QD (dosed from days 0-10 and days 13-18))	inhibition of growth of MKN45 tumors ([2]; all doses: 10, 30 and 60 mg/kg p.o. QD, 18 days)
COc1ccc2c(Oc3ccc(NC(=O)c4c(C)n(C[C@@H](C)OC(=O)CN)n(-c5ccccc5)c4=O)cc3F)ccnc2c1 [Example 53, (R)-1-(4-(3-fluoro-4-(7-methoxyquinolin-4-yloxy)phenylcarbamoyl)-5-methyl-3-oxo-2-phenyl-2,3-dihydropyrazol-1-yl)propan-2-yl 2-aminoacetate hydrochloride]	47%	76%	99%	statistically significant, dose-dependent inhibition	–	–	–	–
Cc1c(C(=O)Nc2ccc(Oc3ccnc4cc(OCC5(OC(=O)CN)CC5)ccc34)c(F)c2)c(=O)n(-c2ccccc2)n1C [Example 72, 1-((4-(4-(2,3-dimethyl-5-oxo-1-phenyl-2,5-dihydro-1H-pyrazole-4-carboxamido)-2-fluorophenoxy)quinolin-7-yloxy)methyl)cyclopropyl 2-aminoacetate hydrochloride]	–	–	–	–	29%	62%	87%	statistically significant, dose-dependent inhibition
